Measured values from ChEMBL document CHEMBL5465560, “Selectivity Literature for EUbOPEN Chemogenomic Library” (2024).

What was measured:
[1] = target: Casein kinase II subunit alpha (Homo sapiens, UniProt P68400); details: at 10 µM
[2] = target: Serine/threonine-protein kinase OSR1 (Homo sapiens) (UniProt O95747); assay: Selectivity interaction (Kinase panel (DSF assay)) EUB0001558a OXSR1
[3] = target: T1, Interleukin-1 receptor-associated kinase 4 (Homo sapiens) (UniProt Q9NWZ3); assay: Selectivity interaction (KinomeScan (DiscoverX)) EUB0000092b IRAK4; details: at 10 µM
T1 sequence (whole entry): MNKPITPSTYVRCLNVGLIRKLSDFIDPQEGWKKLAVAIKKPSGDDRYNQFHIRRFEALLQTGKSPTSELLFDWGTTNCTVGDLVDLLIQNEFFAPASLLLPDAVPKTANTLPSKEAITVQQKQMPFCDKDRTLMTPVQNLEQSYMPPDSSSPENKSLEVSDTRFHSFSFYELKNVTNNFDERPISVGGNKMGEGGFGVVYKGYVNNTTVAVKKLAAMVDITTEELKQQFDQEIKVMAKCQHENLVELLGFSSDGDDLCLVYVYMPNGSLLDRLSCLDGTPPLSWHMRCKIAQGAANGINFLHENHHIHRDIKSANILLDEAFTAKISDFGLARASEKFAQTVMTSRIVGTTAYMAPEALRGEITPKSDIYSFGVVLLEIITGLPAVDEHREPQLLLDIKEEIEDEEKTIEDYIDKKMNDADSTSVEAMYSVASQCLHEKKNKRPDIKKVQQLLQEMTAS

[4] = target: T2, Mitogen-activated protein kinase 13 (Homo sapiens) (UniProt O15264); assay: Selectivity interaction (ProQinase) EUB0000171b MAPK13
T2 sequence (whole entry): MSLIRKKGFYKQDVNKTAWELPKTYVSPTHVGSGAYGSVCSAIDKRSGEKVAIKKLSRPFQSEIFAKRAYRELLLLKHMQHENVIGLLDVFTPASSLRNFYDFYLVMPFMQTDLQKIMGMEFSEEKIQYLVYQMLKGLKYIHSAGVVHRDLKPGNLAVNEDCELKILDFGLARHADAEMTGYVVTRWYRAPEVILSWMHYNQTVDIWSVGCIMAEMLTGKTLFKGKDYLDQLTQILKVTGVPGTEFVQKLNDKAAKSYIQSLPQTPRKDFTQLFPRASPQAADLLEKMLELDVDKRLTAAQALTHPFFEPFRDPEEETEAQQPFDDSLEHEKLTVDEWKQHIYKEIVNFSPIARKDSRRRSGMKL

[5] = target: Bromodomain-containing protein 7 (Homo sapiens) (UniProt Q9NPI1); assay: Selectivity interaction (Human bromodomain panel (DSF assay)) EUB0000233b BRD7
[6] = target: T3, Interleukin-1 receptor-associated kinase 3 (Homo sapiens) (UniProt Q9Y616); assay: Selectivity interaction (ActivX KiNativ screen (kinase selectivity in THP-1 cell lysates)) EUB0000639a IRAK3; format: subcellular; details: lysate, at 0.2 µM
T3 sequence (whole entry): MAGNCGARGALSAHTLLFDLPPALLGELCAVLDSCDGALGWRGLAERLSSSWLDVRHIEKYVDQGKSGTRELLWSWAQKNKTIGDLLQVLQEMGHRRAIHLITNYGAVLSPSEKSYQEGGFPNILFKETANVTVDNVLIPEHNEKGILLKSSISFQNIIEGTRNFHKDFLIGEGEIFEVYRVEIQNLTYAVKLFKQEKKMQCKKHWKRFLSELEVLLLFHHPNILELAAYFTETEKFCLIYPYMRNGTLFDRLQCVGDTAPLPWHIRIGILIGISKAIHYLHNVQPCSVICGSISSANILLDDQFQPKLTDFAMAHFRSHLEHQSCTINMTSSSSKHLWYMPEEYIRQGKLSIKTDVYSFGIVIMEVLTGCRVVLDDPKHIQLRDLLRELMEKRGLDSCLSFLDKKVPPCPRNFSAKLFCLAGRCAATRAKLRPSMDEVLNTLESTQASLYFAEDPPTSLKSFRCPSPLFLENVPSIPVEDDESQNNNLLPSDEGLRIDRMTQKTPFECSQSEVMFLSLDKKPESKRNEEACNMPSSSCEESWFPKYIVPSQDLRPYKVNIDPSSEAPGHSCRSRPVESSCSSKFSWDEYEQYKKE

[7] = target: Serine/threonine-protein kinase PLK3 (Homo sapiens, UniProt Q9H4B4); assay: Selectivity interaction (Kinase panel (Invitrogen)) EUB0000639a PLK3; details: at 200 nM
[8] = target: Calcium/calmodulin-dependent protein kinase type II subunit alpha (Homo sapiens, UniProt Q9UQM7); assay: Selectivity interaction (KinomeScan (DiscoverX)) EUB0001049a CAMK2A; details: at 1 µM
[9] = target: Wee1-like protein kinase 2 (Homo sapiens) (UniProt P0C1S8); assay: Selectivity interaction (KinomeScan (DiscoverX)) EUB0001049a WEE2; details: at 1 µM
Aurora kinase B = Aurora kinase B (Homo sapiens, UniProt Q96GD4); assay: Selectivity interaction (KinomeScan (DiscoverX)) EUB0000618a AURKB; details: at 10 µM
Chain of Aurora kinase B (Q96GD4 whole entry): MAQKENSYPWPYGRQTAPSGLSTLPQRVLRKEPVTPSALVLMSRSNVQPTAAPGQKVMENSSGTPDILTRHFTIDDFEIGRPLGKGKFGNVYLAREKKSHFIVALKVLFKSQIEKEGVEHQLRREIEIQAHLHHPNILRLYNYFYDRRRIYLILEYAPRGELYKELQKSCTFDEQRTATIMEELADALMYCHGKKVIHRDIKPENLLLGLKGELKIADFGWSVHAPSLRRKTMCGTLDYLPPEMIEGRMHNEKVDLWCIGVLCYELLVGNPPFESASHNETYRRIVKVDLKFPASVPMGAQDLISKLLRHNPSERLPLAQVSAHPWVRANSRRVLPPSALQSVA

Chain of Serine/threonine-protein kinase OSR1 (Homo sapiens) (O95747 2-527 limits assumed): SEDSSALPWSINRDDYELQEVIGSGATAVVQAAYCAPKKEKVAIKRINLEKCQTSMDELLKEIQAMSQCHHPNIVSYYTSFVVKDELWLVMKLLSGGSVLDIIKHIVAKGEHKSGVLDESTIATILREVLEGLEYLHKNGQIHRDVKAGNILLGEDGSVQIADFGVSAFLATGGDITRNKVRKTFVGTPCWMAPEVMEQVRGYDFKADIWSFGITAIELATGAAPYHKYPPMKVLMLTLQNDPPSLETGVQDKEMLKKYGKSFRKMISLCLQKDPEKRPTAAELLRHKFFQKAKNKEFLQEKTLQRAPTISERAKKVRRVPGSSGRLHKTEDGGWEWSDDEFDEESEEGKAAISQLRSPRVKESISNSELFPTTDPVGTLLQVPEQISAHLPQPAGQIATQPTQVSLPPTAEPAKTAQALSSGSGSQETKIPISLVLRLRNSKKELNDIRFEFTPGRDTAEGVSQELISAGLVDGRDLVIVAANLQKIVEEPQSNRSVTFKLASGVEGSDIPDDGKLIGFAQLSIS
Chain of Casein kinase II subunit alpha (P68400 whole entry, looked up): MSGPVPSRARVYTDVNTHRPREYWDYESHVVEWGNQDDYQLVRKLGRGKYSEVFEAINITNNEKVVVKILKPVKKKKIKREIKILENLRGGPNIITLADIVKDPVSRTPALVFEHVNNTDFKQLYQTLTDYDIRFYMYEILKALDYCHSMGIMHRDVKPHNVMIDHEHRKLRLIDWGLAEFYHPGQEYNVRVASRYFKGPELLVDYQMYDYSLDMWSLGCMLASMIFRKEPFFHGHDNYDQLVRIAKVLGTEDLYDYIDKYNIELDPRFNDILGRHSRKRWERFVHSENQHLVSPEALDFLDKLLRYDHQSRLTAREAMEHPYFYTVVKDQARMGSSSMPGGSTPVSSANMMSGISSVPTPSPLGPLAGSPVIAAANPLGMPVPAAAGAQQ
Chain of Wee1-like protein kinase 2 (Homo sapiens) (P0C1S8 whole entry, looked up): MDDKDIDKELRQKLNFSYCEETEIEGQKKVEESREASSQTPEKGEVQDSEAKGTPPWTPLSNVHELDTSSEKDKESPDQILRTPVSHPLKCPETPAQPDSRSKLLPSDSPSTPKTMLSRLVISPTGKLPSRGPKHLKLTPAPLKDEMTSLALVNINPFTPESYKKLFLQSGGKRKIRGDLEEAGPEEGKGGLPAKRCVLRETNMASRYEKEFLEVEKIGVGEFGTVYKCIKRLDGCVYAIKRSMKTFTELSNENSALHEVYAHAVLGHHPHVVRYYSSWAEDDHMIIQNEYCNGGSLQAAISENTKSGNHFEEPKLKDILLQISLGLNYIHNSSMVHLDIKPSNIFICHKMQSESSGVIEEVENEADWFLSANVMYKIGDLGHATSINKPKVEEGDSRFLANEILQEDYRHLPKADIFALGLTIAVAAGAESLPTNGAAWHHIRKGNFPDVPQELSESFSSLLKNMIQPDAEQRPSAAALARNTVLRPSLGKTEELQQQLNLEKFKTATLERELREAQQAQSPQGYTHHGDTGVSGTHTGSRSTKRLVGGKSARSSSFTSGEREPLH
Chain of Calcium/calmodulin-dependent protein kinase type II subunit alpha (Q9UQM7 whole entry): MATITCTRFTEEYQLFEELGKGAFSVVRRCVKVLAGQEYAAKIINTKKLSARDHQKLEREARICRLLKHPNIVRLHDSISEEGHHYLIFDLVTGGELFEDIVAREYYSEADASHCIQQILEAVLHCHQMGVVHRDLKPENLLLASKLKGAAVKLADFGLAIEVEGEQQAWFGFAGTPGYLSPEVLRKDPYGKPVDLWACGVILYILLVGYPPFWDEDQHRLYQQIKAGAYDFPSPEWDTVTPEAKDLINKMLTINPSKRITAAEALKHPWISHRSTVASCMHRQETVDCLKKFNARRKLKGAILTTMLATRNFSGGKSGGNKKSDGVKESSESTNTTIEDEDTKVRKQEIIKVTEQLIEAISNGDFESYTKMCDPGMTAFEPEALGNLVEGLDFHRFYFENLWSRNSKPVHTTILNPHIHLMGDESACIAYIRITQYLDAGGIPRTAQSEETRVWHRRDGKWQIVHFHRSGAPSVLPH
Chain of Bromodomain-containing protein 7 (Homo sapiens) (Q9NPI1 whole entry): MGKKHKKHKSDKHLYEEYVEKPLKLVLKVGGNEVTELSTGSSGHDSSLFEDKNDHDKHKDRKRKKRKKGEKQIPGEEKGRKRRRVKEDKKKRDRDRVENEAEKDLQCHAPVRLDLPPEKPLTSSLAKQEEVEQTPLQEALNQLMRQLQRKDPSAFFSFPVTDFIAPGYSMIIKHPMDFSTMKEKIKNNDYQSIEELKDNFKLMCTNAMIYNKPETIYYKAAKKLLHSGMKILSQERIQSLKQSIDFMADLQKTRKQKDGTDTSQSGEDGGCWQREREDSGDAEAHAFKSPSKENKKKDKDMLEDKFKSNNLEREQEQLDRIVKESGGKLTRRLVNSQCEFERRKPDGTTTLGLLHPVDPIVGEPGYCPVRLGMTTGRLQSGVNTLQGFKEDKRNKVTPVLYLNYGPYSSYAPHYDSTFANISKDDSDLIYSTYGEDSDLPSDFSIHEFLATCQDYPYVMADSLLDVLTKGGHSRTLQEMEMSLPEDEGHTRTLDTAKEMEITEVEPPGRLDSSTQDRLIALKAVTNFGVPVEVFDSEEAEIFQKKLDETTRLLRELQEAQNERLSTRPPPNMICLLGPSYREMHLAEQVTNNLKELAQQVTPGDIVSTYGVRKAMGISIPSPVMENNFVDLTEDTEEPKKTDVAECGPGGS
Chain of Serine/threonine-protein kinase PLK3 (Q9H4B4 whole entry, looked up): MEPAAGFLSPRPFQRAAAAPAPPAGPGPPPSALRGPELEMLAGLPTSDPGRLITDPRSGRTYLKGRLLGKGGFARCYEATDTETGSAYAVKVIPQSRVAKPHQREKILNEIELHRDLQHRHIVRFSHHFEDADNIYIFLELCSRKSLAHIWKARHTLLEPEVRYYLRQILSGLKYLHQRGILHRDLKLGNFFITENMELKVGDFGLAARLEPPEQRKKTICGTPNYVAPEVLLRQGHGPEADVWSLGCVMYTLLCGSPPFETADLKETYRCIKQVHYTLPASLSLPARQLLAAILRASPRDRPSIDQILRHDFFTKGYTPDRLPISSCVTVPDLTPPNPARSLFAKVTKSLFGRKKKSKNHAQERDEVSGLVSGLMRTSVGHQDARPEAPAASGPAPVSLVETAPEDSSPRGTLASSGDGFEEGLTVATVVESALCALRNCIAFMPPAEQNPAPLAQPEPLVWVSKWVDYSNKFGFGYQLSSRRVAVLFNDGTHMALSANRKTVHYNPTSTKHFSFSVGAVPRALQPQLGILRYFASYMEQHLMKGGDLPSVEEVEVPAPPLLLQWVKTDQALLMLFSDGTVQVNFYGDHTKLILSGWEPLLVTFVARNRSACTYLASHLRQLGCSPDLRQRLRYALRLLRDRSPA

CCN(CC)CCCCNc1ncc2cc(-c3cc(OC)cc(OC)c3)c(NC(=O)NC(C)(C)C)nc2n1
% of control [1]: 100%

CC(C)(O)[C@H](F)CN1Cc2cc(NC(=O)c3cnn4cccnc34)c(N3CCOCC3)cc2C1=O
dTM [2]: -0.5 K

CCC(=O)N1CCN(c2ccc(-n3c(=O)ccc4cnc5ccc(-c6cnc7ccccc7c6)cc5c43)cc2C(F)(F)F)CC1
% of control [3]: 90%

C=CC(=O)Nc1cccc(C(=O)Nc2ccc(Nc3cc(-c4[nH]c(SC)nc4C)ccn3)cc2)c1
% of control ([4]; at 1 µM): 91% | % of control ([4]; at 5 µM): 80%

CN(C)CCCOc1ccc(-c2cc(NCCCn3cccn3)nc(S(C)(=O)=O)n2)cc1
dTM [5]: 4 K

CC[C@@H]1[C@H](F)C(=O)N[C@@H]1COc1nccc2cc(C(N)=O)c(OC)cc12 [ZIMLOVISERTIB]
% of inhibition [6]: 34% | % of inhibition [7]: 5.09%

COc1cc(Nc2nc(C)cc(-c3cnn4nc(OC)ccc34)n2)cc(C(F)(F)F)c1
% of control [8]: 85% | % of control [9]: 100%

O[C@H]1CC[C@H](Nc2ncc3nc(Nc4c(F)cc(F)cc4F)n([C@H]4CCOC4)c3n2)CC1
% of control (Aurora kinase B): 100%
